Measured values as given in PubChem BioAssay (NCI).
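The concentration for 50% growth inhibition is given as GI50. TGI is the concentration that stops growth completely.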

What was measured:
Experiment in all cases: NCI-60 cell line screen, 384-well format; in the data active = GI50 below about 0.43 µM; inactive = the rest
BT-549 breast = tested on: BT-549 breast
SF-295 CNS = tested on: SF-295 CNS
UACC-62 melanoma = tested on: UACC-62 melanoma
TK-10 renal = tested on: TK-10 renal
SNB-19 CNS = tested on: SNB-19 CNS
MCF7 breast = tested on: MCF7 breast
SK-MEL-28 melanoma = tested on: SK-MEL-28 melanoma
A549 NSCLC = tested on: A549 NSCLC
NCI-H522 lung = tested on: NCI-H522 lung
NCI-H226 lung = tested on: NCI-H226 lung
M14 melanoma = tested on: M14 melanoma
SK-MEL-5 melanoma = tested on: SK-MEL-5 melanoma
786-0 renal = tested on: 786-0 renal
CCRF-CEM leukemia = tested on: CCRF-CEM leukemia
NCI-H23 lung = tested on: NCI-H23 lung
OVCAR-5 ovarian = tested on: OVCAR-5 ovarian
U251 glioblastoma = tested on: U251 glioblastoma
SF-539 CNS = tested on: SF-539 CNS
UACC-257 melanoma = tested on: UACC-257 melanoma
SF-268 CNS = tested on: SF-268 CNS
RXF 393 renal = tested on: RXF 393 renal
OVCAR-3 ovarian = tested on: OVCAR-3 ovarian
OVCAR-4 ovarian = tested on: OVCAR-4 ovarian
CAKI-1 renal = tested on: CAKI-1 renal
NCI-H460 NSCLC = tested on: NCI-H460 NSCLC
OVCAR-8 ovarian = tested on: OVCAR-8 ovarian
SK-OV-3 ovarian = tested on: SK-OV-3 ovarian
RPMI-8226 leukemia = tested on: RPMI-8226 leukemia
MDA-MB-435 melanoma = tested on: MDA-MB-435 melanoma
HL-60(TB) leukemia = tested on: HL-60(TB) leukemia
MALME-3M melanoma = tested on: MALME-3M melanoma
COLO 205 colon = tested on: COLO 205 colon
HT29 colon = tested on: HT29 colon
A498 renal = tested on: A498 renal
T-47D breast = tested on: T-47D breast
HCT-116 colon = tested on: HCT-116 colon
NCI-H322M lung = tested on: NCI-H322M lung
NCI/ADR-RES ovarian = tested on: NCI/ADR-RES ovarian
HCC-2998 colon = tested on: HCC-2998 colon
ACHN renal = tested on: ACHN renal
SNB-75 CNS = tested on: SNB-75 CNS
SK-MEL-2 melanoma = tested on: SK-MEL-2 melanoma
DU-145 prostate = tested on: DU-145 prostate
HS 578T breast = tested on: HS 578T breast
HOP-92 NSCLC = tested on: HOP-92 NSCLC
MDA-MB-468 breast = tested on: MDA-MB-468 breast
MDA-MB-231 breast = tested on: MDA-MB-231 breast

COc1ccc2c(Oc3ccc(NC(=O)c4c(C)n(CC(C)(C)O)n(-c5ccccc5)c4=O)nc3)ccnc2c1
25.7 µM: TGI (BT-549 breast)
29.1 µM: TGI (MDA-MB-231 breast)
60 µM: TGI (MALME-3M melanoma)
30.2 µM: TGI (HCT-116 colon)
34.6 µM: TGI (HS 578T breast)
14.9 µM: TGI (HL-60(TB) leukemia)
64 µM: TGI (SF-539 CNS)
inactive: GI50 (BT-549 breast) 11.5 µM | GI50 (SF-295 CNS) 13.9 µM | GI50 (UACC-62 melanoma) 4.99 µM | GI50 (TK-10 renal) 10.8 µM | GI50 (SNB-19 CNS) 34.1 µM | GI50 (MCF7 breast) 46.4 µM | GI50 (SK-MEL-28 melanoma) 25.2 µM | GI50 (A549 NSCLC) 16.8 µM | GI50 (NCI-H522 lung) 14.4 µM | GI50 (NCI-H226 lung) 22.6 µM | GI50 (M14 melanoma) 6.34 µM | GI50 (SK-MEL-5 melanoma) 13.8 µM | GI50 (786-0 renal) 19.8 µM | GI50 (CCRF-CEM leukemia) 10.3 µM | GI50 (NCI-H23 lung) 10.8 µM | GI50 (OVCAR-5 ovarian) 37.8 µM | GI50 (U251 glioblastoma) 24.7 µM | GI50 (SF-539 CNS) 10.1 µM | GI50 (UACC-257 melanoma) 25.1 µM | GI50 (SF-268 CNS) 19.9 µM | GI50 (RXF 393 renal) 2.42 µM | GI50 (OVCAR-3 ovarian) 13 µM | GI50 (OVCAR-4 ovarian) 15.2 µM | GI50 (CAKI-1 renal) 3.45 µM | GI50 (NCI-H460 NSCLC) 14.3 µM | GI50 (OVCAR-8 ovarian) 13.8 µM | GI50 (SK-OV-3 ovarian) 4.04 µM | GI50 (RPMI-8226 leukemia) 6.85 µM | GI50 (MDA-MB-435 melanoma) 12.3 µM | GI50 (HL-60(TB) leukemia) 5.49 µM | GI50 (MALME-3M melanoma) 5.26 µM | GI50 (COLO 205 colon) 42.2 µM | GI50 (HT29 colon) 39.9 µM | GI50 (A498 renal) 4.43 µM | GI50 (T-47D breast) 33.7 µM | GI50 (HCT-116 colon) 10.5 µM | GI50 (NCI-H322M lung) 10.3 µM | GI50 (NCI/ADR-RES ovarian) 25.7 µM | GI50 (HCC-2998 colon) > 100 µM | GI50 (ACHN renal) 5.81 µM | GI50 (SNB-75 CNS) 7.61 µM | GI50 (SK-MEL-2 melanoma) 13 µM | GI50 (DU-145 prostate) 8.18 µM | GI50 (HS 578T breast) 4.65 µM | GI50 (HOP-92 NSCLC) 10.4 µM | GI50 (MDA-MB-468 breast) 22.9 µM | GI50 (MDA-MB-231 breast) 9.28 µM
> 100 µM: TGI (SF-295 CNS) | TGI (SNB-19 CNS) | TGI (MCF7 breast) | TGI (A549 NSCLC) | TGI (NCI-H226 lung) | TGI (SK-MEL-5 melanoma) | TGI (786-0 renal) | TGI (NCI-H23 lung) | TGI (OVCAR-5 ovarian) | TGI (U251 glioblastoma) | TGI (UACC-257 melanoma) | TGI (SF-268 CNS) | TGI (OVCAR-4 ovarian) | TGI (CAKI-1 renal) | TGI (NCI-H460 NSCLC) | TGI (OVCAR-8 ovarian) | TGI (SK-OV-3 ovarian) | TGI (COLO 205 colon) | TGI (HT29 colon) | TGI (A498 renal) | TGI (T-47D breast) | TGI (NCI-H322M lung) | TGI (NCI/ADR-RES ovarian) | TGI (HCC-2998 colon) | TGI (ACHN renal) | TGI (DU-145 prostate) | TGI (MDA-MB-468 breast)
53.7 µM: TGI (MDA-MB-435 melanoma)
54.1 µM: TGI (NCI-H522 lung)
9.27 µM: TGI (RXF 393 renal)
33.4 µM: TGI (SK-MEL-2 melanoma)
84.8 µM: TGI (SK-MEL-28 melanoma)
24 µM: TGI (UACC-62 melanoma)
41.1 µM: TGI (HOP-92 NSCLC)
100 µM: TGI (TK-10 renal)
22 µM: TGI (CCRF-CEM leukemia)
19.4 µM: TGI (RPMI-8226 leukemia)
53.1 µM: TGI (SNB-75 CNS)
70.2 µM: TGI (M14 melanoma)
31.6 µM: TGI (OVCAR-3 ovarian)
